Literature values as cited in patent US20060201863A1, “Sterilization water tank” (priority 2003, published 2006).

Assays:
[1] = tested on: Rice-straw bacillus; settings: against Rice-straw bacillus
[2] = tested on: Salmonella; settings: against Salmonella
[3] = tested on: Pseudomonas aeruginosa; settings: against Pseudomonas aeruginosa
[4] = tested on: Staphylococcus; settings: against Staphylococcus
[5] = tested on: Colitis germs; settings: against Colitis germs
[6] = tested on: Bacteria; settings: against Bacteria
[7] = tested on: Pneumonia bacillus; settings: against Pneumonia bacillus
[8] = tested on: Colitis germs; settings: silver in an ionized state

In the case of `[Cu+2]` [Copper ion, reference compound], the “MIC (minimum inhibitory concentration)” value [1] is listed as 400 ppm, the “MIC (minimum inhibitory concentration)” value [2] is listed as 400 ppm and the “MIC (minimum inhibitory concentration)” value [3] is listed as 400 ppm. The “MIC (minimum inhibitory concentration)” value [4] was 400 ppm, the “MIC (minimum inhibitory concentration)” value [5] was 200 ppm and the “MIC (minimum inhibitory concentration)” value [6] was 400 ppm. The “MIC (minimum inhibitory concentration)” value [7] was 200 ppm.
In the case of `[Ag+]` [Silver ion], the “MIC (minimum inhibitory concentration)” value [1] is listed as 1.56 ppm, the “MIC (minimum inhibitory concentration)” value [2] is listed as 0.78 ppm and the “amount that may kill colitis germs” value [8] is listed as “about several ten”. The “MIC (minimum inhibitory concentration)” value [3] was 0.78 ppm, the “MIC (minimum inhibitory concentration)” value [4] was 0.78 ppm and the “MIC (minimum inhibitory concentration)” value [5] was 6.3 ppm. For the same molecule, the “MIC (minimum inhibitory concentration)” value [6] was 0.78 ppm and the “MIC (minimum inhibitory concentration)” value [7] was 0.78 ppm.
